The record followed here is patent EP0264038A1, “Cytostatics containing glycidyl groups” (Henkel Kommanditgesellschaft auf Aktien, priority 1986, dated 1988).

The structures appear in SMILES notation.

The experiment has as its system Tumorart P 388 (Leukämie). As to the kind of experiment: Cytostatic activity: survival of mice with i.p. implanted P 388 leukemia (NCI protocol 1200). In kind it is in vivo, Mäusen. The settings on record: 9-day treatment, P 388 set i.p. with 10⁶ Zellen/Maus, untreated mean survival 10 days. The text has this:
Die nachfolgenden Versuche wurden durchgeführt nach Testvorschriften des National Cancer Institute Bethesda, Maryland 200014, veröffentlicht in "Cancer Chemotherapy Reports" Part. 3, Sept. 1972, Vol. 3, Nr. 2.
Die Substanz wurde als wäßrige 1 %ige Injektionslösung unmittelbar vor der Applikation frisch hergestellt.
Bei Mäusen wurden gemäß Protokoll 1200 (S. 91 c) die Tumorart P 388 (Leukämie) i.p. mit 10⁶ Zellen/Maus gesetzt. Die unbehandelten Tiere hatten eine mittlere Überlebensdauer von 10 Tagen.
Mit den behandelten Testtieren, die einer 9-tägigen i.p. Behandlung mit der in Tabelle 1 angegebenen Dosis unterworfen wurden, wurde eine signifikante Verlängerung der Lebensdauer gegenüber der mittleren Überlebensdauer der nicht mit dem Wirkstoff behandelten Tiere erzielt. Die Verlängerungsrate T/C in Abhängigkeit von der Dosierung des Wirkstoffes ist nachtstehend tabellarisch zusammengestellt.

Regarding `O=P(CC1CO1)(CC1CO1)CC1CO1` (stereo not drawn) [Triglycidylphosphinoxid], the “Verlängerungsrate T/C in %” value (Dosis 15 mg/kg) came to 243%, the “Verlängerungsrate T/C in %” value (Dosis 3,75 mg/kg) was 163% and the “Verlängerungsrate T/C in %” value (Dosis 7,5 mg/kg) is recorded as 176%.
